For data set [1], the target named is T1, α-syn fibrils (Homo sapiens, UniProt P37840).
T1 construct: made in house; host or cells: Escherichia coli BL21(DE3)
Briefly: Inhibition of thioflavin T binding to α-syn fibrils (fluorescence competition), Ki determination. As to the method: (§1) Wild-type α-syn and Aβ1-42 were expressed in the Escherichia coli strain BL21(DE3) (Stratagene, La Jolla, CA, USA) and purified as described. […] For the Aβ1-42 peptide, the concentration was determined by a fluorometric method using the reactive compound fluorescamine (Sigma, San Jose, CA, USA) that reacts with primary amino groups to form a fluorescent product. The human Tau protein (isoform h2N4RTau) was expressed in the pET11d vector in the Escherichia coli strain BL21(DE3) (Stratagene, La Jolla, CA, USA) and purified as described.
(§2) For assembly into fibrils, α-syn was incubated in 50 mM Tris-HCl, pH 7.5, 150 mM KCl at 37 °C under continuous shaking for 4 days. Lyophilized Aβ1-42 was dissolved in 1,1,1,3,3,3-hexafluoro-2-propanol (HFIP) at a concentration of 0.2 mg/mL and incubated for 24 h at 37 °C to achieve complete solubilization. HFIP was evaporated under a nitrogen stream to obtain a dry film. To start assembly into fibrils, the dry peptide was resuspended in PBS pH 7.4, 10% (v/v) DMSO and incubated at 37 °C without shaking for 3 days. The Tau protein was assembled in fibrils in a PBS buffer containing 1 mM of DTT in the presence of 1/12 heparin (v/v) at 37 °C under shaking. […] Protein fibrils were systematically examined by transmission electron microscopy (TEM) in a Jeol 1400 transmission electron microscope following adsorption onto carbon-coated 200 mesh grids and negative staining with 1% uranyl acetate. The images were recorded with a Gatan Orius CCD camera (Gatan, Pleasanton, CA, USA). Finally, the percentage of α-syn or Aβ1-42 aggregated into fibrils was assessed by pelleting fibrils at 40,000× g for 20 min and by determining the concentration of soluble protein/peptide remaining in the supernatant.
(§3) The samples were incubated for 1 h at room temperature to achieve complete equilibration.

Data set [2] has as its target T2, Aβ1-42 fibrils (Homo sapiens, UniProt P05067).
T2 construct: Wild-type α-syn and Aβ1-42 were expressed; made in house; host or cells: Escherichia coli BL21(DE3)
Kind of data set: Inhibition of thioflavin T binding to Aβ1-42 fibrils (fluorescence competition), Ki determination. The following applies: calculated from IC50, competition with ThT 500 nM, fibrils 500 nM, mean ± SD of 3 experiments; read-out: Ki Aβ. The protocol:
as §1, §2, §3

Data set [3] addresses T3, Tau fibrils (isoform h2N4RTau) (Homo sapiens, UniProt P10636).
T3 construct: made in house; host or cells: Escherichia coli BL21(DE3), pET11d vector
Briefly: Inhibition of thioflavin T binding to Tau fibrils (fluorescence competition), Ki determination. The settings on record: calculated from IC50, competition with ThT 500 nM, fibrils 200 nM, mean ± SD of 3 experiments. As to the method: as §1, §2, §3

The target of data set [4] is T1, α-syn fibrils. The following applies: cited from earlier work.
The next data set deals with Aβ fibrils. The following applies: cited from earlier work.
In data set [5] the target is T1, α-syn fibrils. Kind of data set: Dynamic PET imaging and ex vivo brain radioactivity in rats with α-syn fibrils implanted in the right striatum. The following applies: Wistar rat. An excerpt:
The next step in the characterization of our new PET tracer was to evaluate its ability to bind in vivo to α-syn fibrils. For this aim, we performed a simple preliminary imaging experiment in which the same α-syn fibrils as those used in in vitro experiments were surgically and unilaterally implanted in the brains of two adult Wistar rats. The accumulation of [^18F]45 after intravenous (i.v.) injection was compared, in each animal, between the implanted and intact non-implanted side. The fibrils were administered by stereotaxic injection into the right striatum, [^18F]45 was i.v. injected 1 day later, and image acquisition began at the time of injection using a microPET eXplore Vista (GE Healthcare, Buc, France)/CT system during 3 h. PET images were reconstructed and analyzed in three regions of interest, i.e., the left striatum without fibrils (C-ST), the right striatum with fibrils (I-ST), and the cerebellum (CE). At the end of imaging acquisition, each rat was sacrificed, and brain regions were removed, weighed, and their radioactivity measured.
PET imaging experiments were performed with [^18F]45 on two adult male Wistar rats weighing 250–300 g (Janvier, Le Genest-Saint-Isle, France). The animals were housed in a temperature (23 °C) and humidity (43%) controlled environment under a 12-h light-dark cycle with food and water available ad libitum, and experimental procedures were conducted in accordance with the requirements of the European Community Council Directive 2010/63/EU for the care of laboratory animals and with the authorization of the Regional Ethical Committee (Authorization N°2012-03-1).
The rats were scanned one hour after receiving an intra-cerebral administration of α-syn. They were anesthetized with isoflurane (4% in O2, 500 mL/min, Baxter, France), placed on a stereotaxic frame (Stoelting, Phymep, Paris, France) and maintained under isoflurane 2.5% (500 mL/min) during surgery. Body temperature was monitored and kept at 37 °C. Fibrils of α-syn were prepared as described above (solution of 10 mg/mL in PBS). This solution was administered in two sites of the right striatum of each rat using a 25 μL Hamilton Gastight syringe (Hamilton, Massy, France) with a 30-gauge needle (Phymep, Paris, France) connected to a perfusion system. […]
For the PET experiment, each rat was anesthetized with isoflurane (Baxter, Guyancourt, France), at 4–5% in O2 for induction and then 1.5–2% during scanning, and received an i.v. bolus injection of 42–46 MBq of [^18F]45 (molar activity 99.69 GBq/µmol) into the tail vein. […] The quantification of the tracer uptake was extracted from the last 6 120-s frames corresponding to 49–61 min of acquisition after tracer injection. […] PET images were reconstructed and analyzed using PMOD (3.403, PMOD Technologies, Zurich, Switzerland). […]

Data set [6] has as its target T1, α-syn fibrils. Kind of data set: Direct fluorescence titration on α-syn fibrils: Kd and Bmax. The class given is binding. The following applies: direct assay on fibrils, mean ± SD of 3 experiments. An excerpt:
(§4) In view of the interesting properties of compounds 33–39, we decided to switch to azaindole structures and to study the impact of the position of the nitrogen atom in the 6-membered ring on binding to fibrils. At this step we measured, in addition to the Ki values, the direct binding of each compound to fibrils through the fluorescence in the fraction bound to fibrils, which allowed us to determine the affinity values (Kd, Table 1). […] We therefore prepared a fluorinated derivative of compound 43, i.e., 45.
(§5) Fresh solutions of each tested compound (2.5 mM in DMSO) were diluted in PBS pH 7.4 at concentrations ranging from 0.5 nM to 5 µM in the presence or absence of α-syn, Aβ1-42, or Tau fibrils (200 nM, 500 nM, or 200 nM, respectively) in a final volume of 2 mL. After 1 h incubation at room temperature, the binding of each compound to α-syn, Aβ1-42, or Tau fibrils was assessed by fluorescence measurements using the appropriate excitation/emission wavelengths (i.e., those yielding the highest fluorescence ratio between fibril-bound and free compound). For any given concentration of compound added to the fibrils, the concentrations of compound bound to the fibrils and free in solution were determined on the basis of the measured fluorescence. Since at each point of the titration: Fm = FB × B + FF × (T − B) where Fm is the measured fluorescence of the compound in the presence of fibrils at a given compound concentration T, FB is the specific molar fluorescence of the bound compound, FF is the specific molar fluorescence of the free compound, and B is the concentration of compound bound to the fibrils at any point of the titration. FF was determined by measuring the fluorescence of known compound concentrations in the absence of fibrils. FB was determined by measuring the maximum fluorescence of known compound concentrations upon saturation with α-syn, Aβ1-42, or Tau fibrils.
(§6) Therefore, at each point of the titration, the concentration of bound compound B could be determined and was B = (Fm − FF × T)/FB − FF. The B values thus determined versus the respective concentrations of free compound were analyzed by fitting to the Michaelis-Menten equation.

Data set [7] addresses T2, Aβ1-42 fibrils. Kind of data set: Direct fluorescence titration on Aβ1-42 fibrils: Kd and Bmax. It counts as binding. The following applies: direct assay on fibrils, mean ± SD of 3 experiments; read-out: Kd Aβ.
Source text: as §4, §5, §6

The target in data set [8] is T3, Tau fibrils (isoform h2N4RTau). Briefly: Direct fluorescence titration on Tau fibrils: Kd and Bmax. The class given is binding. The following applies: direct assay on fibrils, mean ± SD of 3 experiments.
Source text: as §4, §5, §6

Where [9] appears, read: calculated from IC50, competition with ThT 500 nM, fibrils 200 nM, mean ± SD of 3 experiments.

For orientation: Ki means a dissociation constant, usually derived from enzyme kinetics or from competition with a known ligand. One may read the Kd as the constant that tells how readily two partners part at equilibrium.

Like-named read-outs stand apart in the source and are kept apart here. Where only a bound is given, the exact number is not on record here.

T3 sequence (P10636 1-441 isoform P10636-8): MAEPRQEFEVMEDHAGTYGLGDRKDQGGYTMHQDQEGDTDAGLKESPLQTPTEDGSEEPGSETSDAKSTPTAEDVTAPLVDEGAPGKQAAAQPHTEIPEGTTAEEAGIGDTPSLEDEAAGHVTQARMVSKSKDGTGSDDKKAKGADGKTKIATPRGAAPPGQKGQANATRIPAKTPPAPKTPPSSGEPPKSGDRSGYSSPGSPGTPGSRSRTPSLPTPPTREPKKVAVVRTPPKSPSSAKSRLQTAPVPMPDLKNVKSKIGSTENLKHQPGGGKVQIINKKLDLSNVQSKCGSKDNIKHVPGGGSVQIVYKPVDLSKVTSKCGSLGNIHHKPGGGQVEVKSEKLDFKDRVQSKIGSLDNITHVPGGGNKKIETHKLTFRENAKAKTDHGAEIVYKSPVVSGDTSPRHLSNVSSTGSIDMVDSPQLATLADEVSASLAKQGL
T2 sequence (P05067 672-713): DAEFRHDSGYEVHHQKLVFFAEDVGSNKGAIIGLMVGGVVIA

Consider `CN(C)c1ccc(C#Cc2cc3ccccc3[nH]2)cc1` [Compound 38], for which the figures for the Ki (at α-syn fibrils [1]; at Aβ1-42 fibrils [2]; in data set [3]) were 36 ± 7 nM, 64.4 ± 40 nM and 27.6 ± 3 nM, respectively.

Regarding `C(#Cc1cc2ccccc2[nH]1)c1ccccc1` [Compound 31], the figures for the Ki (at α-syn fibrils [1]; on Aβ1-42 fibrils [2]; in data set [3]) were above 100 nM, 68.9 ± 30 nM and 19.6 ± 2 nM, respectively.

For the compound `CN(C)c1ccc(C#Cc2cc3cc(OCCF)ccc3[nH]2)cc1` [Compound 40], the Ki is above 100 nM on α-syn fibrils [1], 10.1 ± 5 nM on Aβ1-42 fibrils [2] and 15.8 ± 3 nM in [3].

Consider `COc1ccc2[nH]c(C#Cc3ccc(N(C)C)cc3)cc2c1` [Compound 39], for which the Ki was 21.7 ± 6 nM at α-syn fibrils [1] and 12.7 ± 1 nM in data set [3].

On to `CN(c1ccc(/C=C/c2nc3ccccc3o2)cc1)S(=O)(=O)c1ccccc1[18F]` [[^18F]2FBox], for which the Kd is 3.3 nM on α-syn fibrils [4] (in vitro, read-out: Kd for α-syn fibrils) and 145 nM on Aβ fibrils (in vitro, read-out: Kd for Aβ).

Consider `CCc1ccc(C#Cc2cc3ccccc3[nH]2)cc1` [Compound 33], for which the Ki at α-syn fibrils [1] is 35.9 ± 5 nM; on Aβ1-42 fibrils [2] it was 3.3 ± 1 nM; in data set [3] it was 32.9 ± 8 nM.

For the compound `Cc1ccc(C#Cc2cc3ccccc3[nH]2)cc1` [Compound 32], the inhibitory constant (Ki) is above 100 nM on α-syn fibrils [1], 37.9 ± 13 nM at Aβ1-42 fibrils [2] and 13.1 ± 2 nM in data set [3].

For `CN(CC[18F])c1ccc(C#Cc2cc3cccnc3[nH]2)cc1` [[^18F]45], the “radioactivity accumulation in the three brain regions (CE, I-ST, C-ST) at the end of imaging” value on α-syn fibrils [5] (ex vivo γ-counting after PET, n = 2) is recorded as “identical radioactivity accumulation”. Also, at α-syn fibrils [5] (i.v. 42–46 MBq, dynamic PET 3 h), the “ability to cross the blood–brain barrier” value is “able to cross the blood–brain barrier”. Also, on α-syn fibrils [5] (i.v. 42–46 MBq, dynamic PET 3 h, CE, I-ST, C-ST), the “brain uptake kinetics (time-activity curves)” value was “slow uptake and almost no washout”. At α-syn fibrils [5] (α-syn fibrils in right striatum, i.v. 42–46 MBq), the “specificity of brain uptake / in vivo binding to implanted α-syn fibrils” value is “non-specific uptake was observed”.

Consider `Nc1ccc(C#Cc2cc3ccccc3[nH]2)cc1` [Compound 35], for which the values for the Ki (at α-syn fibrils [1]; at Aβ1-42 fibrils [2]; in data set [3]) were 40.4 ± 6 nM, 26.2 ± 11 nM and 123 ± 28 nM, respectively.

For the compound `CN(C)c1ccc(C#Cc2cc3ccncc3[nH]2)cc1` [Compound 42], the values for the Ki (at α-syn fibrils [1] (setting [9]); on Aβ1-42 fibrils [2]; in data set [3]) were 28.7 ± 8 nM, 91.5 ± 11 nM and 8.4 ± 1 nM, respectively. The figures for the Kd (at α-syn fibrils [6]; on Aβ1-42 fibrils [7]; in data set [8]) were 1.4 ± 1 nM, 5.2 ± 3 nM and 0.49 ± 0.2 nM, respectively.

Consider `COc1cccc2ccc(/C=N/N=C/c3ccc4cccc(OCC[18F])c4n3)nc12` [[^18F]BQ2], for which the Ki at α-syn fibrils [4] was around 10 nM. Further, the “Ki for Aβ” value on Aβ fibrils (compared with Ki for α-syn) is recorded as “same Ki for Aβ”.

With `CNc1ccc(C#Cc2cc3ccccc3[nH]2)cc1` [Compound 37], the Ki on α-syn fibrils [1] was 47.8 ± 9 nM; at Aβ1-42 fibrils [2], 6.6 ± 2 nM; in data set [3], 17.2 ± 3 nM.

As for `CN(C)c1ccc(C#Cc2cc3ncccc3[nH]2)cc1` [Compound 41], the inhibition constant Ki was 26 ± 16 nM at α-syn fibrils [1] (setting [9]), 21.3 ± 7 nM on Aβ1-42 fibrils [2] and 12 ± 1 nM in data set [3]. Moreover, the Kd was 3.25 ± 0.2 nM at α-syn fibrils [6], 2.9 ± 2 nM on Aβ1-42 fibrils [7] and 0.13 ± 0.05 nM in data set [8].

As to `COc1ccc(C#Cc2cc3ccccc3[nH]2)cc1` [Compound 34], the Ki on α-syn fibrils [1] was 96.7 ± 14 nM; at Aβ1-42 fibrils [2] it was 68.9 ± 14 nM; in [3] it was 33.1 ± 7 nM.

As for `Nc1cccc(C#Cc2cc3ccccc3[nH]2)c1` [Compound 36], the Ki was above 100 nM at α-syn fibrils [1], 15.3 ± 7 nM at Aβ1-42 fibrils [2] and 7.2 ± 1 nM in [3].

For `CN(C)c1ccc(C#Cc2cc3cnccc3[nH]2)cc1` [Compound 44], the values for the Ki on α-syn fibrils [1] and on Aβ1-42 fibrils [2] were 26 ± 16 nM and 21.3 ± 7 nM, respectively. The Kd came out at 1 ± 0.5 nM at α-syn fibrils [6], 3.6 ± 2 nM on Aβ1-42 fibrils [7] and 2.4 ± 0.9 nM in data set [8].

For the compound `CN([11CH3])c1ccc(-c2cc(-c3ccnc(Br)c3)[nH]n2)cc1` [[^11C]MODAG-001], on α-syn fibrils [4] (in vitro), the “better affinity for α-syn as compared to Aβ and tau fibrils” value was “around 20 times”.

Source of the values: publication PMC12655733, “Design, Synthesis and Evaluation of the First 2-Alkynyl(aza)indole ^18F Probe Targeting α-Synuclein Aggregates” (Pharmaceuticals, 2025).
